Results taken from PMC9573943, “Contribution of the 12–17 hydrophobic region of islet amyloid polypeptide in self-assembly and cytotoxicity” (Frontiers in Molecular Biosciences, 2022).
Bridge positions count the residues as written; N and C are the ends. Ends that are not written are not given here.

Legend:
[1] = Kinetics of amyloid formation monitored by ThT fluorescence; type: physicochemical; settings: 40 μM ThT, 20 mM Tris-HCl pH 7.4, 25°C, no agitation; for Lag time of amyloid formation: 25 μM peptide, nonbinding surface 96-well plate, read every 10 min, lag time = T50 - 2/k, mean ± S.D. of at least six assays
Description: Aggregation mixtures were prepared by dissolving the lyophilized peptide at a concentration of 50 μM in 20 mM Tris-HCl, pH 7.4. Assays were performed at 25°C without stirring in sealed black-wall clear-bottom 96-well nonbinding surface plates with 100 μL/well. Final peptide concentrations were 12.5 and 25 μM, and thioflavin T (ThT) concentration was fixed at 40 μM. Fluorescence was measured every 10 min (excitation: 440 nm, emission: 485 nm) and data from triplicate wells were averaged, corrected by subtracting the blank control, and plotted as ThT fluorescence vs. time. Data were normalized with maximum ThT fluorescence intensity obtained for unmodified IAPP. Data were fitted to a sigmoidal Boltzmann model: Y=Yo+(Ymax−Yo)/1+e^−(T−T50)/ K where T 50 is the time required to reach half of the maximum fluorescence intensity, k is the apparent first-order constant, and Y max and Y 0 are the maximum and initial ThT fluorescence values. Lag time corresponds to T50 - 2/k. Data of at least six assays performed with different peptide lots were averaged and expressed as the mean ± S.D. Statistical analysis was performed using Student’s t test, and statistically significant difference between IAPP and analogs was established at (*) p < 0.05; (**) p < 0.005; (***) p < 0.0005.

[2] = Lipid membrane leakage (calcein-loaded LUVs); settings: 25 μM peptide, 500 μM phospholipids; for Maximum membrane leakage (calcein fluorescence, % of that with Triton X-100): LUVs DOPC:DOPG 9:1, 20 mM Tris-HCl, 150 mM NaCl, pH 7.4, read every 10 min over 24 h, IAPP value reached after 10 h, at least four assays
Description: Large unilamellar vesicles (LUVs) were assembled from 1,2-Dioleoyl-sn-glycero-3-phosphocholine (DOPC) and 2-dioleoyl-sn-glycero-3-phospho-(1′-rac-glycerol) (DOPG) at a 9:1 M ratio (DOPC:DOPG). Lipids were solubilized in 100% chloroform, which was then evaporated. […] The lipid mixture was freeze-thawed five times before being extruded through a 100 nm membrane for 20 cycles. Nonencapsulated calcein was removed by gel filtration using a Sephadex G25 fine resin and 20 mM Tris-HCl, 150 mM NaCl, pH 7.4, as elution buffer. Final lipid concentration was determined by a colorimetric assay ([Babych et al., 2021]). Lyophilized peptides were solubilized in 20 mM Tris-HCl, 150 mM NaCl, pH 7.4, at 50 μM prior to dilution into calcein-LUVs, to reach 25 μM peptide and 500 μM phospholipids. Fluorescence was monitored in sealed black-wall, clear-bottom 96-well non-binding surface plates with 100 μL/well. […] 100% leakage (Fmax) was determined with 0.2% Triton X-100 and LUV leakage was reported using:
Membrane leakage (%) = (F−F baseline)/(F max−F baseline)
Data of at least four assays with different peptide lots were averaged and expressed as the mean ± S.D. Statistical analysis was performed using Student’s t test, and statistically significant difference was established at (*) p < 0.05; (**) p < 0.005; (***) p < 0.0005.

[3] = Peptide self-assembly under fully quiescent conditions (CD, ThT and ANS fluorescence, TEM, AFM); type: physicochemical; settings: 50 μM peptide; for Assemblies observed by TEM after 48 h incubation: negative stain TEM; for ThT fluorescence of incubated peptide, in words: diluted to 25 μM with 40 μM ThT; for Incubation time at which the random coil to β-sheet conformational transition is seen (far-UV CD): microtubes, diluted to 25 μM for CD
Description: Solutions were prepared by dissolving the peptide at a concentration of 50 μM in 20 mM Tris-HCl, pH 7.4, and were incubated at room temperature without agitation in 1.5 ml Eppendorf microtubes. For IAPP12-17, the lyophilized peptide was dissolved in 20 mM acetate pH 6.5 in the presence of 3% DMSO, or HFIP, at a final concentration of 500 μM and the peptide solution was incubated at 37 °C under constant rotational agitation.
At the indicating time of incubation, peptide solutions were diluted to 25 μM in presence of 40 μM ThT, or 25 μM 8-anilino-1-naphthalenesulfonic acid (ANS). Fluorescence was measured in 10-mm pathlength microcells using a PTI QuantaMaster spectrofluorometer. For ThT, excitation was set at 440 nm, and the emission spectrum from 450 to 550 nm was recorded. For ANS, the excitation was set at 355 nm, and the emission scan was recorded from 385 to 585 nm.
After incubation, peptide solutions were diluted in water to 25 μM and incorporated into a 2-mm path length quartz cell. For IAPP12-17, the solution was diluted to 150 μM. Far-UV CD spectra were recorded from 190 to 260 nm using a Jasco J-815 CD spectropolarimeter at 25°C. The wavelength step was set at 0.5 nm with an average time of 10 s per scan at each wavelength. Spectra were background-subtracted with buffer solution. Raw data were converted to mean residue ellipticity (MRE): MRE=Mean residue weight (g/mol)X CD signal (deg)/10 X pathlength (cm) X peptide concentration (g/mL)
After incubation, peptide solutions were diluted to 10 μM, or 100 μΜ for IAPP12-17, before being applied on glow-discharged carbon films on 300-mesh copper grids. Samples were adsorbed and negatively stained with 1.5% uranyl formate for 45 s. Images were recorded using a FEI Tecnai G2 Spirit Twin microscope operating at 120 kV and equipped with a Gatan Ultrascan scan 4,000 4k × 4k CCD camera system.
After incubation, peptide solutions were diluted in 1% acetic acid to a concentration of 7.5 μΜ. […] Images were recorded using Veeco/Bruker multimode AFM instrument using ScanAsyst-air mode with a silicon tip (2–12 nm tip radius, 0.4 N/m force) on a nitride lever. Images were taken at 0.977 Hz and 512 scan/min.

[4] = tested on: INS-1E cells; assay: Live/Dead viability assay (calcein-AM / ethidium homodimer-1, fluorescence microscopy); type: cell-based, Rat; settings: 25 μM freshly solubilized peptide, 24 h, calcein-AM (green, live) and ethidium homodimer-1 (red, dead)
Description: (§1) Rat INS-1E cells were cultured in treated black-wall clear-bottom 96-well plates at a density of 25,000 cell/well in RPMI-1640 medium supplemented with 10% FBS, 2 mM L-glutamine, 100 U/ml penicillin, 100 μg/ml streptomycin, 10 mM HEPES, 1 mM sodium pyruvate and 50 μM β-mercaptoethanol. After 48 h of incubation at 37°C in 5% CO2, cells were treated with 50 μL of peptide freshly dissolved in 20 mM Tris-HCl, pH 7.4. […] Cell viability (%) was calculated from the ratio of the fluorescence of the treated cells to the vehicle-treated cells. Data of at least five assays performed with different peptide lots were averaged and expressed as the mean ± S.D. Statistical analysis was performed using Student’s t test, and statistically significant difference was established at (*) p < 0.05; (**) p < 0.005; (***) p < 0.0005. For Live/Dead viability assay, cells were plated in 12-well plates at density of 250,000 cell/well for 48 h before treatment with 25 μM peptide.

[5] = tested on: INS-1E cells; assay: Cell viability by resazurin reduction; type: cell-based, Rat; settings: 24 h, at least five assays; for Cell viability: 50 μM freshly dissolved peptide, relative to vehicle-treated cells; for Cytotoxicity compared with unmodified IAPP, in words: freshly dissolved peptide up to 50 μM
Description: as §1

[6] = 20 mM Tris-HCl pH 7.4, quiescent
[7] = 20 mM Tris-HCl pH 7.4, room temperature, fully quiescent

**Q.** Which results are given for `CC[C@H](C)[C@H](NC(=O)[C@H](C)NC(=O)CNC(=O)[C@H](Cc1ccccc1)NC(=O)[C@H](CC(N)=O)NC(=O)[C@H](CC(N)=O)NC(=O)[C@H](CO)NC(=O)[C@H](CO)NC(=O)[C@H](Cc1c[nH]cn1)NC(=O)[C@@H](NC(=O)[C@H](CC(C)C)NC(=O)[C@H](Cc1ccccc1)NC(=O)[C@H](CC(N)=O)NC(=O)[C@H](C)NC(=O)[C@H](CC(C)C)NC(=O)[C@H](CCCNC(=N)N)NC(=O)[C@H](CCC(N)=O)NC(=O)[C@@H](NC(=O)[C@H](C)NC(=O)[C@@H]1CSSC[C@H](NC(=O)[C@@H](N)CCCCN)C(=O)N[C@@H](CC(N)=O)C(=O)N[C@@H]([C@@H](C)O)C(=O)N[C@@H](C)C(=O)N[C@@H]([C@@H](C)O)C(=O)N1)[C@@H](C)O)C(C)C)C(=O)N[C@@H](CC(C)C)C(=O)N[C@@H](CO)C(=O)N[C@@H](CO)C(=O)N[C@H](C(=O)N[C@@H](CC(N)=O)C(=O)N[C@H](C(=O)NCC(=O)N[C@@H](CO)C(=O)N[C@@H](CC(N)=O)C(=O)N[C@H](C(=O)N[C@@H](Cc1ccc(O)cc1)C(N)=O)[C@@H](C)O)C(C)C)[C@@H](C)O` [IAPP, islet amyloid polypeptide]?
**A.** Lag time of amyloid formation [1]: 3.9 ± 1.2 h; Maximum membrane leakage (calcein fluorescence, % of that with Triton X-100) [2]: 17%; Incubation time at which membrane leakage starts ([2]; LUVs DOPC:DOPG 9:1, pH 7.4): 5 h; Assemblies observed by TEM after 48 h incubation [3, 6]: prototypical fibrils; ThT fluorescence of incubated peptide, in words [3, 6]: increase of ThT and ANS fluorescence; Incubation time at which the random coil to β-sheet conformational transition is seen (far-UV CD) [3, 7]: 24 h; Cell death in Live/Dead assay, in words [4]: sharp increase in the number of red cells and a decrease of green cells; Cell viability [5]: less than 10%; Cytotoxicity compared with unmodified IAPP, in words [5]: concentration-dependent decrease of metabolic activity

**Q.** Which results are given for `CC[C@H](C)[C@H](NC(=O)[C@H](C)NC(=O)CNC(=O)[C@H](Cc1ccccc1)NC(=O)[C@H](CC(N)=O)NC(=O)[C@H](CC(N)=O)NC(=O)[C@H](CO)NC(=O)[C@H](CO)NC(=O)[C@H](Cc1c[nH]cn1)NC(=O)[C@@H](NC(=O)[C@H](CC(C)C)NC(=O)[C@H](Cc1ccccc1)NC(=O)[C@H](C)NC(=O)[C@H](C)NC(=O)[C@H](CC(C)C)NC(=O)[C@H](CCCNC(=N)N)NC(=O)[C@H](CCC(N)=O)NC(=O)[C@@H](NC(=O)[C@H](C)NC(=O)[C@@H]1CSSC[C@H](NC(=O)[C@@H](N)CCCCN)C(=O)N[C@@H](CC(N)=O)C(=O)N[C@@H]([C@@H](C)O)C(=O)N[C@@H](C)C(=O)N[C@@H]([C@@H](C)O)C(=O)N1)[C@@H](C)O)C(C)C)C(=O)N[C@@H](CC(C)C)C(=O)N[C@@H](CO)C(=O)N[C@@H](CO)C(=O)N[C@H](C(=O)N[C@@H](CC(N)=O)C(=O)N[C@H](C(=O)NCC(=O)N[C@@H](CO)C(=O)N[C@@H](CC(N)=O)C(=O)N[C@H](C(=O)N[C@@H](Cc1ccc(O)cc1)C(N)=O)[C@@H](C)O)C(C)C)[C@@H](C)O` [N14A]?
**A.** Maximum membrane leakage (calcein fluorescence, % of that with Triton X-100) [2]: 50%; Assemblies observed by TEM after 48 h incubation [3, 6]: dense network of thin fibrils; ANS fluorescence of incubated peptide, in words ([3]; 20 mM Tris-HCl pH 7.4, quiescent, diluted to 25 μM with 25 μM ANS): high ANS signal; ThT fluorescence of incubated peptide, in words [3, 6]: low ThT fluorescence; Incubation time at which the random coil to β-sheet conformational transition is seen (far-UV CD) [3, 7]: 48 h; Secondary conformation / conformational transition over incubation (far-UV CD), in words ([3]; 20 mM Tris-HCl pH 7.4, room temperature, fully quiescent, up to 7 days): helical-like conformation with two minima at 206 and 222 nm between 2 and 24 h incubation; Assemblies observed by AFM after 24 h incubation ([3]; 20 mM Tris-HCl pH 7.4, room temperature, no agitation, 24 h): only poorly defined fibrils; Cell death in Live/Dead assay, in words [4]: decreased toxicity compared to unmodified IAPP; Cell viability [5]: 50%; Cytotoxicity compared with unmodified IAPP, in words [5]: reduced IAPP toxicity

**Q.** Which “Increase of ThT fluorescence signal” value ([1]; 12.5 μM peptide) does the source give for “F15A: full-length IAPP with Phe15 replaced by alanine (KCNTATCATQRLANALVHSSNNFGAILSSTNVGSNTY; disulfide 2-7; ends not checked; UniProt P10997 34-70, looked up, variant F15A)” here?
**A.** no increase of ThT fluorescence signal could be detected

**Q.** And the “Lag time of amyloid formation” value [1]?
**A.** 14.2 ± 2.2 h

**Q.** What about the “Maximum membrane leakage (calcein fluorescence, % of that with Triton X-100)” value [2] of the same compound?
**A.** 55%

**Q.** What about the “Assemblies observed by TEM after 48 h incubation” value [3, 6] of the same compound?
**A.** no fibrillar aggregates could be observed

**Q.** What about the “Overall effect of the substitution on amyloid formation, in words” value ([3]; 20 mM Tris-HCl pH 7.4, quiescent, CD, ThT, ANS, TEM, compared with unmodified IAPP) of the same compound?
**A.** delayed the appearance of ThT and ANS-positive signals, and β-sheet-rich assemblies

**Q.** And the “Assemblies observed by AFM after 96 h incubation” value ([3]; 20 mM Tris-HCl pH 7.4, room temperature, no agitation, 96 h)?
**A.** only small aggregates

**Q.** And the “Assemblies observed by TEM after 168 h (7 days) incubation” value ([3]; 20 mM Tris-HCl pH 7.4, room temperature, no agitation, 168 h)?
**A.** amyloid fibrils could be observed

**Q.** What about the “Cell death in Live/Dead assay, in words” value [4] of the same compound?
**A.** decreased toxicity compared to unmodified IAPP

**Q.** What about the “Cytotoxicity compared with unmodified IAPP, in words” value [5] of the same compound?
**A.** reduced IAPP toxicity
